The target in this experiment is Serotonin 5HT7 receptors (Homo sapiens (Human), UniProt P34969). Kind of experiment: Radiolabel Binding Studies for Serotonin 5HT7 receptors. To be noted: for inhibition at 10 µM: read-out: 5-HT7 % inhib @ 10 uM; for IC50: radioligand competition binding, membranes of cells expressing recombinant 5HT7 receptors. On the procedure: Radiolabel Binding Studies for Scrotonin 5HT7 Receptors, Method 1:
Eleven dilutions (5× assay concentration) of the compound of the disclosure and chlorpromazine are prepared in the Assay Buffer by serial dilution to yield final corresponding assay concentrations ranging from 10 pM to 10 μM.
A stock concentration of 5 nM [^3H]LSD (lysergic acid diethyl amide) is prepared in 50 mM Tris-HCl, 10 mM MgCl2, 1 mM EDTA, pH 7.4 (Assay Buffer). Aliquots (50 μl) of radioligand are dispensed into the wells of a 96-well plate containing 100 μl of Assay Buffer. Duplicate 50-μl aliquots of the compound of the disclosure test and chlorpromazine positive control reference compound serial dilutions are added.
Membrane fractions of cells expressing recombinant 5HT7 receptors (50 μL) are dispensed into each well. The membranes are prepared from stably transfected cell lines expressing 5HT7 receptors cultured on 10-cm plates by harvesting PBS-rinsed monolayers, resuspending and lysing in chilled, hypotonic 50 mM Tris-HCl, pH 7.4, centrifuging at 20,000×g, decanting the supernatant and storing at −80° C.; the membrane preparations are resuspended in 3 ml of chilled Assay Buffer and homogenized by several passages through a 26 gauge needle before using in the assay.
The 250-μl reactions are incubated at room temperature for 1.5 hours, then harvested by rapid filtration onto 0.3% polyethyleneimine-treated, 96-well filter mats using a 96-well Filtermate harvester. Four rapid 500-μl washes are performed with chilled Assay Buffer to reduce non-specific binding. The filter mats are dried, then scintillant is added to the filters and the radioactivity retained on the filters is counted in a Microbeta scintillation counter.
Raw data (dpm) representing total radioligand binding (i.e., specific+non-specific binding) are plotted as a function of the logarithm of the molar concentration of the competitor (i.e., test or reference compound).
Radiolabel Binding Studies for Serotonin 5-HT7 Receptors, Method 2:
A stock concentration of 5 nM [^3H]-5-Hydroxytryptamine ([^3H]-5HT) is prepared in 50 mM Tris-HCl, 10 mM MgCl2, 1 mM EDTA, pH 7.4 (Assay Buffer). Aliquots (50 μl) of radioligand are dispensed into the wells of a 96-well plate containing 100 μl of Assay Buffer. Duplicate 50-μl aliquots of the compound of the disclosure test and chlorpromazine positive control reference compound serial dilutions are added.
Membrane fractions of cells expressing recombinant 5HT7 receptors (50 μL) are dispensed into each well. The membranes are prepared from stably transfected cell lines expressing 5HT7 receptors cultured on 10-cm plates by harvesting PBS-rinsed monolayers, resuspending and lysing in chilled, hypotonic 50 mM Tris-HCl, pH 7.4, centrifuging at 20,000×g, decanting the supernatant and storing at −80° C.; the membrane preparations are resuspended in 3 ml of chilled Assay Buffer and homogenized by several passages through a 26 guage needle before using in the assay.

SMILES strings stand for the structures.

Regarding `O=C1OC(CCN2CCN(c3ccc4[nH]ccc4c3)CC2)CC12CCCC2` (stereo not shown) [Entry 160147], the inhibition at 10 µM was found to be 99.6%.

On to `O=C1OC(CCN2CCN(c3ccnc(Cl)c3)CC2)CC12CCCCC2` (stereo not shown) [Entry 160153], for which the “5-HT7 % inhib @ 10 uM” value (single concentration of 10 uM, percent inhibition of radioligand binding) is 58.2%.

Regarding `COc1ccnc(N2CCN(CCC3CC4(CCCC4)C(=O)O3)CC2)c1` (stereo not shown) [Entry 230009], the IC50 (usually the point on the concentration scale where inhibition reaches its midpoint) came to 124 nM and the inhibition at 10 µM was 90%.

Turning to `COc1ccc(N2CCN(CC[C@@H]3CC(C)(C)C(=O)O3)CC2)cc1` [Entry 230039], the half-maximal inhibitory concentration (IC50) is 1000 nM.

With `COc1ccc(N2CCN(CC[C@H]3CC(C)(C)C(=O)O3)CC2)cc1` [Entry 230046], the IC50 was determined as 1000 nM.

For the molecule `CCC1(CC)CC(CCCN2CCN(c3ccc(OC)cc3)CC2)OC1=O` (stereo not shown) [Entry 230060], the concentration for half-maximal inhibition (IC50) is 1000 nM.

For the molecule `CCC1(CC)CC(CCN2CCN(c3ccc4nc(C(F)(F)F)[nH]c4c3)CC2)OC1=O` (stereo not shown) [Entry 230068], the IC50 amounted to 1000 nM.

For `CCC1(CC)CC(CCN2CCN(c3ccc4nc(C)[nH]c4c3)CC2)OC1=O` (stereo not shown) [Entry 230069], the IC50 is 1000 nM and the inhibition at 10 µM was determined as 15.9%.
